Assay results reported in the supplement of paper PMC13380429.

Legend:
Details in all cases: 72 h
[1] = system: Vero E6; experiment: relative viability EC50 (midpoint between 100% and the lowest measured viability); higher = less toxic
[2] = system: Caco-2; experiment: as above
[3] = system: U2OS; experiment: as above
[4] = system: HepG2; experiment: as above
[5] = system: Vero E6; experiment: cell viability relative to DMSO; higher = less toxic
[6] = system: Caco-2; experiment: as above
[7] = system: U2OS; experiment: as above
[8] = system: HepG2; experiment: as above
[9] = system: Vero E6; experiment: drug sensitivity score (DSS) for viability; higher = more toxic; extreme values may be limits of the assay
[10] = system: Caco-2; experiment: as above
[11] = system: U2OS; experiment: as above
[12] = system: HepG2; experiment: as above
[13] = system: Calu-3; experiment: as above
[14] = system: Calu-3; experiment: cell viability relative to DMSO; higher = less toxic

Structure (SMILES): CCOc1ccc(C(=O)OCCN(CC)CC)cc1 [parethoxycaine]
- relative viability EC50 [1]: > 10 µM
- relative viability EC50 [2]: > 10 µM
- relative viability EC50 [3]: > 10 µM
- relative viability EC50 [4]: > 10 µM
- cell viability ([5]; 1 nM): 94.6%
- cell viability ([5]; 10 nM): 95.6%
- cell viability ([5]; 100 nM): 92.3%
- cell viability ([5]; 1000 nM): 97.5%
- cell viability ([5]; 10000 nM): 111%
- cell viability ([6]; 1 nM): 97.1%
- cell viability ([6]; 10 nM): 85.1%
- cell viability ([6]; 100 nM): 95.6%
- cell viability ([6]; 1000 nM): 93.7%
- cell viability ([6]; 10000 nM): 104%
- cell viability ([7]; 1 nM): 101%
- cell viability ([7]; 10 nM): 92.8%
- cell viability ([7]; 100 nM): 103%
- cell viability ([7]; 1000 nM): 98.1%
- cell viability ([7]; 10000 nM): 98.8%
- cell viability ([8]; 1 nM): 98.6%
- cell viability ([8]; 10 nM): 116%
- cell viability ([8]; 100 nM): 106%
- cell viability ([8]; 1000 nM): 108%
- cell viability ([8]; 10000 nM): 102%
- drug sensitivity score [9]: 0
- drug sensitivity score [10]: 0
- drug sensitivity score [11]: 0
- drug sensitivity score [12]: 0

Structure (SMILES): O=C1[O][SbH]23[O]C(=O)C([O]2)C2[O][SbH]4([O]C(=O)C([O]4)C1[O]3)[O]C2=O [antimonyl]
- relative viability EC50 [1]: > 10 µM
- relative viability EC50 [3]: > 10 µM
- relative viability EC50 [4]: 2.48 µM
- cell viability ([5]; 1 nM): 98.7%
- cell viability ([5]; 10 nM): 103%
- cell viability ([5]; 100 nM): 106%
- cell viability ([5]; 1000 nM): 107%
- cell viability ([5]; 10000 nM): 102%
- cell viability ([6]; 1 nM): 106%
- cell viability ([6]; 10 nM): 94.7%
- cell viability ([6]; 100 nM): 99.2%
- cell viability ([6]; 1000 nM): 84.7%
- cell viability ([6]; 10000 nM): 71.5%
- cell viability ([7]; 1 nM): 95.6%
- cell viability ([7]; 10 nM): 97.1%
- cell viability ([7]; 100 nM): 97.6%
- cell viability ([7]; 1000 nM): 96.5%
- cell viability ([7]; 10000 nM): 84.8%
- cell viability ([8]; 1 nM): 96.3%
- cell viability ([8]; 10 nM): 105%
- cell viability ([8]; 100 nM): 101%
- cell viability ([8]; 1000 nM): 95.7%
- cell viability ([8]; 10000 nM): 48%
- drug sensitivity score [9]: 0
- drug sensitivity score [10]: 2.8
- drug sensitivity score [11]: 0.5
- drug sensitivity score [12]: 3.4

Structure (SMILES): COc1cc(NC(=O)Nc2cccc(CNC(=O)O[C@H]3CCOC3)c2)ccc1-c1cnco1 [merimepodib]
- drug sensitivity score [13]: 3.6
- drug sensitivity score [9]: 0
- drug sensitivity score [11]: 3.7
- drug sensitivity score [12]: 4.3

Structure (SMILES): COC(=O)Nc1nc2cc(C(=O)c3ccccc3)ccc2[nH]1 [mebendazole]
- relative viability EC50 [1]: 1.59 µM
- relative viability EC50 [3]: 0.774 µM
- relative viability EC50 [4]: 0.387 µM
- cell viability ([14]; 1 nM): 81.1%
- cell viability ([14]; 10 nM): 107%
- cell viability ([14]; 100 nM): 95%
- cell viability ([14]; 1000 nM): 84.6%
- cell viability ([14]; 10000 nM): 61.3%
- cell viability ([5]; 1 nM): 111%
- cell viability ([5]; 10 nM): 97.6%
- cell viability ([5]; 100 nM): 102%
- cell viability ([5]; 1000 nM): 84.7%
- cell viability ([5]; 10000 nM): 35.6%
- cell viability ([6]; 1 nM): 91.6%
- cell viability ([6]; 10 nM): 104%
- cell viability ([6]; 100 nM): 88.4%
- cell viability ([6]; 1000 nM): 67.2%
- cell viability ([6]; 10000 nM): 55.6%
- cell viability ([7]; 1 nM): 95.5%
- cell viability ([7]; 10 nM): 102%
- cell viability ([7]; 100 nM): 95.5%
- cell viability ([7]; 1000 nM): 66%
- cell viability ([7]; 10000 nM): 41.2%
- cell viability ([8]; 1 nM): 97.5%
- cell viability ([8]; 10 nM): 109%
- cell viability ([8]; 100 nM): 102%
- cell viability ([8]; 1000 nM): 44.3%
- cell viability ([8]; 10000 nM): 40.9%
- drug sensitivity score [13]: 3.4
- drug sensitivity score [9]: 5.9
- drug sensitivity score [10]: 7
- drug sensitivity score [11]: 7.3
- drug sensitivity score [12]: 10.1

Structure (SMILES): Cc1nc(NC(=O)N2CCC[C@H]2C(N)=O)sc1-c1csc(C(C)(C)C)n1 [A66]
- relative viability EC50 [1]: > 10 µM
- relative viability EC50 [2]: > 10 µM
- relative viability EC50 [3]: > 10 µM
- relative viability EC50 [4]: > 10 µM
- cell viability ([5]; 1 nM): 98.5%
- cell viability ([5]; 10 nM): 96.5%
- cell viability ([5]; 100 nM): 95.3%
- cell viability ([5]; 1000 nM): 101%
- cell viability ([5]; 10000 nM): 87.9%
- cell viability ([6]; 1 nM): 98.5%
- cell viability ([6]; 10 nM): 87.5%
- cell viability ([6]; 100 nM): 95.8%
- cell viability ([6]; 1000 nM): 92%
- cell viability ([6]; 10000 nM): 78.9%
- cell viability ([7]; 1 nM): 103%
- cell viability ([7]; 10 nM): 97.4%
- cell viability ([7]; 100 nM): 98.6%
- cell viability ([7]; 1000 nM): 93%
- cell viability ([7]; 10000 nM): 88.7%
- cell viability ([8]; 1 nM): 84.2%
- cell viability ([8]; 10 nM): 96%
- cell viability ([8]; 100 nM): 84%
- cell viability ([8]; 1000 nM): 89.8%
- cell viability ([8]; 10000 nM): 73.3%
- drug sensitivity score [9]: 0
- drug sensitivity score [10]: 1
- drug sensitivity score [11]: 0
- drug sensitivity score [12]: 0

Structure (SMILES): Oc1ccc(CC2NCCc3cc(O)c(O)cc32)cc1 (stereo not drawn) [higenamine]
- relative viability EC50 [1]: 3.22 µM
- relative viability EC50 [3]: 2.95 µM
- relative viability EC50 [4]: 1.56 µM
- cell viability ([5]; 1 nM): 104%
- cell viability ([5]; 10 nM): 99.2%
- cell viability ([5]; 100 nM): 102%
- cell viability ([5]; 1000 nM): 100%
- cell viability ([5]; 10000 nM): 48.6%
- cell viability ([6]; 1 nM): 97.6%
- cell viability ([6]; 10 nM): 102%
- cell viability ([6]; 100 nM): 94.9%
- cell viability ([6]; 1000 nM): 86.2%
- cell viability ([6]; 10000 nM): 59.4%
- cell viability ([7]; 1 nM): 98.1%
- cell viability ([7]; 10 nM): 103%
- cell viability ([7]; 100 nM): 97.5%
- cell viability ([7]; 1000 nM): 98.1%
- cell viability ([7]; 10000 nM): 36.6%
- cell viability ([8]; 1 nM): 105%
- cell viability ([8]; 10 nM): 97.1%
- cell viability ([8]; 100 nM): 99.3%
- cell viability ([8]; 1000 nM): 83.3%
- cell viability ([8]; 10000 nM): 32.6%
- drug sensitivity score [9]: 2.7
- drug sensitivity score [10]: 3.5
- drug sensitivity score [11]: 3.7
- drug sensitivity score [12]: 6.3

Structure (SMILES): O=C(NOCC1CC1)c1ccc(F)c(F)c1Nc1ccc(I)cc1Cl
- relative viability EC50 [3]: > 10 µM
- relative viability EC50 [4]: 0.277 µM
- cell viability ([5]; 1 nM): 94.5%
- cell viability ([5]; 10 nM): 98.5%
- cell viability ([5]; 100 nM): 84.4%
- cell viability ([5]; 1000 nM): 65.9%
- cell viability ([5]; 10000 nM): 50.6%
- cell viability ([6]; 1 nM): 97.4%
- cell viability ([6]; 10 nM): 94.6%
- cell viability ([6]; 100 nM): 89.3%
- cell viability ([6]; 1000 nM): 75.3%
- cell viability ([6]; 10000 nM): 65.6%
- cell viability ([7]; 1 nM): 101%
- cell viability ([7]; 10 nM): 97.1%
- cell viability ([7]; 100 nM): 94.9%
- cell viability ([7]; 1000 nM): 91.4%
- cell viability ([7]; 10000 nM): 85.3%
- cell viability ([8]; 1 nM): 96.9%
- cell viability ([8]; 10 nM): 89.3%
- cell viability ([8]; 100 nM): 84.2%
- cell viability ([8]; 1000 nM): 31.6%
- cell viability ([8]; 10000 nM): 19.4%
- drug sensitivity score [9]: 7.9
- drug sensitivity score [10]: 5.1
- drug sensitivity score [11]: 0.4
- drug sensitivity score [12]: 14.6
